Experimental data taken from patent publication US10342796B2, “Acrylanilide derivative, preparation method, and applications thereof in pharmacy” (Ancureall Pharmaceutical (Shanghai) Co., Ltd., priority 2015, dated 2019).

Columns and labels:
Assay in all cases: Growth inhibition GI50 in vitro (CCK8/MTT, 72 h)
Assay type in all cases: cell-based, human
HCC827 (EGFR dE746-A750) = conditions: Homo sapiens, HCC827; EGFR mutant cell line; range of GI50; read-out: GI50 HCC827
PC-9 (EGFR dE746-A750) = conditions: Homo sapiens; EGFR mutant cell line; range of GI50; read-out: GI50 PC-9
H1975 (EGFR L858R/T790M) = conditions: Homo sapiens, NCI-H1975; EGFR mutant cell line; range of GI50; read-out: GI50 H1975
[1] = system: PC-9ER (EGFR delE746-A750/T790M); conditions: Homo sapiens, PC-9/ER; EGFR mutant cell line; range of GI50; read-out: GI50 PC9ER
SK-BR-3 (Her2 amp) = conditions: Homo sapiens, SK-BR-3; HER2 positive cell line; range of GI50; read-out: GI50 SK-BR-3
Method: Human lung adenocarcinoma cell line Calu-3 (ATCC) was cultured with 1×MEM complete medium (10% FBS, 1% double-antibiotics, 1% NEAA (Gibco), 2 mM glutamine and 1 mM of sodium pyruvate). Human breast cancer cell line SK-BR-3 was cultured with McCOY'S5A complete medium (10% FBS). Human colon cancer cell line SNU1040 (HER2 V777M positive) (ATCC) and human bronchoalveolar adenocarcinoma cell line NCI-H1781 (expressing HER2 exon 20 G776VC mutation) (ATCC) were cultured with 1×RPMI1640 complete medium (10% FBS), respectively.
The suspension cells were collected by centrifugation. The supernatant was discard and the cell pellet was resuspended and counted. Different cell concentrations (5˜10×10^4 cells/mL) were prepared according to the growth cycle of each cell line and then seeded on a 96-well plate (Corning), 100 μL/well. The cells were incubated over night at 37° C., 5% CO2. The compounds were added to the cells on the second day with 2 wells in parallel. The final concentration of organic solvent shall not exceed 1%. The cells were continually incubated for 72 h, and then subjected to MTT assay.
The present compounds and the reference compounds were dissolved with DMSO (Sigma), respectively. […] The storage concentration of compounds was 10 mM and kept at −20° C. They were diluted by 2 times or 10 times with serial dilution before using.
Dojindo CCK8 reagent kit was used as MTT assay. […] FC meter was used as microplate reader.
Adherent cell culture medium was discard and immediately replaced with fresh prepared medium which contains 10% CCK8 reagent (100 μL/well). For the suspension cells, CCK8 was directly added to 10% of the final concentration. The cells were continually incubated for 1˜4 h. When the color of control wells turned to dark yellow, the absorption value was measured at OD450 nm. The cell growth rate was calculated according to the following formula: cell growth rate (%)=100*(T−T0)/(C−T0), T=optical density of drug treatment cell well—optical density of blank control well; T0=optical density of cell well before drug treatment—optical density of blank control well; C=optical density of cell well of solvent control group—optical density of blank control well. […] The experiment was independently repeated 1˜3 times, and subject to biological statistical analysis.

N87 (HER2 Amp) = conditions: Homo sapiens; HER2 positive cell line; range of GI50; read-out: GI50 N87
AU565 (Her2 amp) = conditions: Homo sapiens, AU565; HER2 positive cell line; range of GI50; read-out: GI50 AU-565
A549 (EGFR WT) = conditions: Homo sapiens, A549; EGFR wild type cell line; range of GI50; read-out: GI50 A549
[2] = system: H460 (EGFR wt, Kras G61H); conditions: Homo sapiens, NCI-H460; EGFR wild type cell line; range of GI50; read-out: GI50 H460
[3] = system: A431 (EGFR WT, amplification and high expression); conditions: Homo sapiens, A-431; EGFR wild type cell line; range of GI50; read-out: GI50 A431
[4] = system: H1299 (EGFR wt, Nras Q61K); conditions: Homo sapiens, NCI-H1299; EGFR wild type cell line; range of GI50; read-out: GI50 H1299

Row | SMILES | GI50 (HCC827 (EGFR dE746-A750)) [nM] | GI50 (PC-9 (EGFR dE746-A750)) [nM] | GI50 (H1975 (EGFR L858R/T790M)) [nM] | GI50 [1] [nM] | GI50 (SK-BR-3 (Her2 amp)) [nM] | GI50 (N87 (HER2 Amp)) [nM] | GI50 (AU565 (Her2 amp)) [nM] | GI50 (A549 (EGFR WT)) [nM] | GI50 [2] [nM] | GI50 [3] [nM] | GI50 [4] [nM]
1 | C=CC(=O)Nc1cc(Nc2nccc(Nc3ccc(F)c(Cl)c3)n2)c(OC)cc1N(C)CCN(C)C [Compound 13, N-(5-(4-(3-chloro-4-fluorophenyl-amino)-pyrimidin-2-ylamino)-2-(2-(dimethylamino-ethyl)-methyl-amino)-4-methoxyl-phenyl)-acrylamide] | 10 to 100 | 10 to 100 | 10 to 100 | 10 to 100 | 10 to 100 | 10 to 100 | 10 to 100 | > 1000 | > 1000 | 100 to 1000 | > 1000
2 | C=CC(=O)Nc1cc(Nc2nccc(Nc3cccc(Cl)c3F)n2)c(OC)cc1N(C)CCN(C)C [Compound 14, N-(5-(4-(3-chloro-2-fluorophenyl-amino)-pyrimidin-2-ylamino)-2-(2-(dimethylamino-ethyl)-methyl-amino)-4-methoxyl-phenyl)-acrylamide] | 10 to 100 | 10 to 100 | 100 to 1000 | 100 to 1000 | 100 to 1000 | 100 to 1000 | 100 to 1000 | > 1000 | > 1000 | > 1000 | > 1000
3 | C=CC(=O)Nc1cc(Nc2nccc(Nc3cc(OC)c(Cl)cc3Cl)n2)c(OC)cc1N(C)CCN(C)C [Compound 16, N-(5-(4-(2,4-dichloro-5-methoxyphenyl-amino)-pyrimidin-2-ylamino)-2-(2-(dimethylamino-ethyl)-methyl-amino)-4-methoxyl-phenyl)-acrylamide] | 10 to 100 | 10 to 100 | 10 to 100 | 10 to 100 | 100 to 1000 | 100 to 1000 | 100 to 1000 | > 1000 | > 1000 | > 1000 | > 1000
4 | C=CC(=O)Nc1cc(Nc2nccc(Nc3ccc(OCc4ccccn4)c(Cl)c3)n2)c(OC)cc1N1CCC(N(C)C)CC1 [Compound 28] | 10 to 100 | 10 to 100 | 10 to 100 | 10 to 100 | 10 to 100 | 10 to 100 | 10 to 100 | > 1000 | > 1000 | 100 to 1000 | > 1000
5 | C=CC(=O)Nc1cc(Nc2nccc(N3CCc4ccccc43)n2)c(OC)cc1N(C)CCN(C)C [Compound 31] | 10 to 100 | 10 to 100 | 10 to 100 | < 10 | 100 to 1000 | 100 to 1000 | 100 to 1000 | > 1000 | > 1000 | 100 to 1000 | > 1000
6 | C=CC(=O)Nc1cc(Nc2nccc(-n3ccc4ccccc43)n2)c(OC)cc1N(C)CCN(C)C [Compound 32] | 10 to 100 | 10 to 100 | 10 to 100 | < 10 | 100 to 1000 | 10 to 100 | 10 to 100 | > 1000 | > 1000 | 100 to 1000 | > 1000
7 | C=CC(=O)Nc1cc(Nc2nccc(-n3cc(C)c4ccccc43)n2)c(OC)cc1N(C)CCN(C)C [Compound 57, N-(5-(4-(3-methyl-1H-indol-1-yl)-pyrimidin-2-ylamino)-2-(2-(dimethylamino-ethyl)-methyl-amino)-4-methoxyl-phenyl)-acrylamide] | 10 to 100 | 100 to 1000 | 10 to 100 | 10 to 100 | 100 to 1000 | 100 to 1000 | 100 to 1000 | > 1000 | > 1000 | 100 to 1000 | > 1000
8 | C=CC(=O)Nc1cc(Nc2nccc(-n3ccc4ccc(OC)cc43)n2)c(OC)cc1N(C)CCN(C)C [Compound 58] | 10 to 100 | 10 to 100 | 10 to 100 | 10 to 100 | 100 to 1000 | 100 to 1000 | 100 to 1000 | > 1000 | > 1000 | 100 to 1000 | > 1000
9 | C=CC(=O)Nc1cc(Nc2nccc(-n3ccc4ccc(C)cc43)n2)c(OC)cc1N(C)CCN(C)C [Compound 59] | 10 to 100 | 10 to 100 | 10 to 100 | 10 to 100 | 100 to 1000 | 100 to 1000 | 100 to 1000 | > 1000 | > 1000 | 100 to 1000 | > 1000
10 | C=CC(=O)Nc1cc(Nc2nccc(-n3ccc4ccc(C#N)cc43)n2)c(OC)cc1N(C)CCN(C)C [Compound 60, N-{5-[4-(6-cyano-indol-1-yl)-pyrimidin-2-ylamino]-2-[(2-dimethylamino-ethyl)-methyl-amino]-4-methoxyl-phenyl}-acrylamidel] | 100 to 1000 | 100 to 1000 | 100 to 1000 | 100 to 1000 | 100 to 1000 | 100 to 1000 | 100 to 1000 | > 1000 | > 1000 | > 1000 | > 1000
11 | C=CC(=O)Nc1cc(Nc2nccc(-n3ccc4ccc(Cl)cc43)n2)c(OC)cc1N(C)CCN(C)C [Compound 61, N-(5-(4-(6-chloro-1H-indol-1-yl)-pyrimidin-2-ylamino)-2-((2-(dimethylamino)ethyl)-methyl-amino)-4-methoxyl-phenyl)-acrylamide] | 10 to 100 | 10 to 100 | < 10 | < 10 | 100 to 1000 | 100 to 1000 | 100 to 1000 | > 1000 | > 1000 | 100 to 1000 | > 1000
